Experimental findings from patent US20140005103A1, “SULFONAMIDE DERIVATIVES AND METHODS OF USE THEREOF FOR IMPROVING THE PHARMACOKINETICS OF A DRUG” (Merck, Sharp & Dohme Corp., priority 2012, published 2014) are described below.

Usually IC50 stands for the concentration at which inhibition is half-maximal.

The target of this assay is T1, CYP1A2 (Homo sapiens, UniProt P05177).
T1 construct: 0.1 mg/mL protein human liver microsomes (BD Gentest); tissue BD Gentest; host or cells: human liver microsomes
T1 sequence (P05177 1-516): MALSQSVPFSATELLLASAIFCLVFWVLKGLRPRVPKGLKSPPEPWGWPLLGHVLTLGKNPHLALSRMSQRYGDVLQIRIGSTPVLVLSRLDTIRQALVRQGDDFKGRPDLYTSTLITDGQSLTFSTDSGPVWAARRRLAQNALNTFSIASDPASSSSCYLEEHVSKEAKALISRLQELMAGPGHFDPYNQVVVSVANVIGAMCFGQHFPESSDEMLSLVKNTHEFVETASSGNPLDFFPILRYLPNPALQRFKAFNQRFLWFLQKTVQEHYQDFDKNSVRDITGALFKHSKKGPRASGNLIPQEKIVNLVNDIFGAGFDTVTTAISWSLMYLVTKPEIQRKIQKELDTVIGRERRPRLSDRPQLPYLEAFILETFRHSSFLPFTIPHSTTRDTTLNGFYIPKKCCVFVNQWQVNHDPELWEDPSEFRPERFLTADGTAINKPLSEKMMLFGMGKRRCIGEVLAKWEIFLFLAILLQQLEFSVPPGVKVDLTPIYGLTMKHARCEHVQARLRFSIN
Briefly: Cocktail CYP assay, phenacetin O-deethylation. The conditions noted are these: human liver microsomes, 10 μM phenacetin; test concentrations up to 10 μM. In kind it is in vitro ADME. The procedure: Determination of IC50 in a Cocktail Assay for CYPs 1A2, 2C9, 2C19, 2D6 and 3A4
This assay was performed in a standard 96-well plate design. IC50 values were calculated from the percent inhibition observed for each test compound at 6 concentrations (for example, 0.0032, 0.016, 0.08, 0.4, 2 and 10 μM). The incubation substrate mix contains 10 μM phenacetin (1A2), 5 μM diclofenac (2C9), 30 μM mephenyloin (2C19), 5 μM dextromethorphan (2D6) and 2 μM midazolam (3A4), 0.1 mg/mL protein human liver microsomes (BD Gentest), 1 mM NAPDH, 3.3 mM MgCl2 and 100 mM potassium phosphate buffer (pH 7.4). The production of the metabolite of each probe substrate was determined after incubation for 10 min at 37° C. Quantitation of the metabolite peak area ratio against an internal standard (tolbutamide) was determined by LC/MS/MS analysis following acetonitrile treatment of the incubations.
Samples were analyzed in the MRM mode with a SCIEX API-4000 mass spectrometer (Applied Biosystems, Foster City, Calif.), with a Shimadzu LC-20 AD pump (Shimadzu corporation, Kyoto, JP) and a CTC PAL autosampler (Agilent Technologies, Switzerland). A Phenomenex, Luna, […], 100 A, 2.00×30 mm HPLC column was used for the separation. The mobile phases were: (A) 0.1% formic acid in water and (B) 0.1% formic acid in acetonitrile. The binary gradient was as follows.
The peak area ratio of the analyte to the internal standard was used to quantify the metabolite. The values of peak area ratios in the presence of test compound were compared to those of maximum or minimum controls and were expressed as % inhibition by interpolating between the maximum and minimum peak area ratios. Incubations with no inhibitor were defined as the maxima.
The following equation was used to calculate the % inhibition:
[1−[(X−Low control)/(High control−Low control)]]*100
For the IC50 calculation, SigmaPlot was used to plot the mean % inhibition versus the test compound concentrations and for non-linear regression analysis of the data. Depending on the range of data points defining the inhibition curve, the data may have been fit to the 4-parameter logistic equation.
Background: Microsomes from liver hold many membrane-bound enzymes, among them those of drug oxidation.

A value given as a limit tells only on which side of the number the result lay.

Consider `CC1CN2C[C@H](O)C[C@H]2CN1c1ncc(S(=O)(=O)N2CCN(Cc3cncn3[C@H](C)c3ccc(F)cc3)CC2)s1` (single isomer, unassigned) [Compound 22], for which the half-maximal inhibitory concentration (IC50) turned out to be 8.66 µM. `C[C@H](c1ccc(F)cc1)n1cncc1CN1CCN(S(=O)(=O)c2cnc(N3CCNCC3)s2)CC1` [Compound 1] returned a 50% inhibitory concentration (IC50) of more than 10 µM. As for `C[C@H](c1ccc(F)cc1)n1cncc1CN1CCN(S(=O)(=O)c2cnc(N3CCN(C)CC3)s2)CC1` [Compound 2], the figure is more than 10 µM; as for `C[C@H](c1ccc(F)cc1)n1cncc1CN1CCN(S(=O)(=O)c2cnc(N3CCC4(CC3)CNC(=O)N4)s2)CC1` [Compound 3], more than 10 µM. As for `C[C@H](c1ccc(C#N)cc1)n1cncc1CN1CCN(S(=O)(=O)c2cnc(Nc3ccc(C(F)(F)F)cn3)s2)CC1` [Compound 4], the figure is more than 10 µM; as for `C[C@H](c1ccc(F)cc1)n1cncc1CN1CCN(S(=O)(=O)c2cnc(N3CCN4C[C@H](O)C[C@H]4C3)s2)CC1` [Compound 5], more than 10 µM.

`C[C@H](c1ccc(F)cc1)n1cncc1CN1CCN(S(=O)(=O)c2cnc(N3CCN4C[C@H](O)C[C@@H]4C3)s2)CC1` [Compound 6] showed a half-maximal inhibitory concentration (IC50) of more than 10 µM. `C[C@H](c1ccc(F)cc1)n1cncc1CN1CCN(S(=O)(=O)c2cnc(N3CCC(S(C)(=O)=O)C3)s2)CC1` (stereo partly drawn) [Compound 8] yielded a concentration for half-maximal inhibition (IC50) of more than 10 µM. As for `C[C@H](c1ccc(F)cc1)n1cncc1CN1CCN(S(=O)(=O)c2cnc(N3CCN(C4CCN(C)CC4)CC3)s2)CC1` [Compound 9], the figure is more than 10 µM. As for `C[C@H](c1ccc(F)cc1)n1cncc1CN1CCN(S(=O)(=O)c2cnc(N3CCN4C[C@@H](CN)C[C@H]4C3)s2)CC1` [Compound 10], the figure is more than 10 µM; as for `C[C@H](c1ccc(F)cc1)n1cncc1CN1CCN(S(=O)(=O)c2cnc(N3CC[C@@H](N)[C@H](F)C3)s2)CC1` [Compound 11], more than 10 µM; as for `C[C@H](c1ccc(F)cc1)n1cncc1CN1CCN(S(=O)(=O)c2cnc(N3CC[C@@H]4NCCO[C@H]4C3)s2)CC1` [Compound 15], more than 10 µM.

`C[C@H](c1ccc(F)cc1)n1cncc1CN1CCN(S(=O)(=O)c2cnc(N3CC(=O)N4C[C@H](O)C[C@H]4C3)s2)CC1` [Compound 16] returned a half-maximal inhibitory concentration (IC50) of 1.49 µM. As to `C[C@H](c1ccc(F)cc1)n1cncc1CN1CCN(S(=O)(=O)c2cnc(NCC(F)CN)s2)CC1` (stereo partly drawn) [Compound 17], the IC50 came out at 2.19 µM. On to `C[C@H](c1ccc(F)cc1)n1cncc1CN1CCN(S(=O)(=O)c2cnc(N3CCN4C[C@H](O)C[C@H]4C3=O)s2)CC1` [Compound 18], for which the IC50 was more than 10 µM.

For the compound `C[C@H](c1ccc(F)cc1)n1cncc1CN1CCN(S(=O)(=O)c2cnc(N3CCN4C[C@H](O)CC[C@H]4C3)s2)CC1` [Compound 19], the 50% inhibitory concentration (IC50) is more than 10 µM. As for `C[C@H](c1ccc(F)cc1)n1cncc1CN1CCN(S(=O)(=O)c2cnc(N3CC[C@@H](N4CCOCC4)[C@H](F)C3)s2)CC1` [Compound 20], the figure is 2.77 µM; as for `C[C@H](c1ccc(F)cc1)n1cncc1CN1CCN(S(=O)(=O)c2cnc(N3C[C@@H]4C[C@@H](O)CN4C[C@@H]3C)s2)CC1` [Compound 21], more than 10 µM. The figure for `CC1CN(c2ncc(S(=O)(=O)N3CCN(Cc4cncn4[C@H](C)c4ccc(F)cc4)CC3)s2)C[C@@H]2C[C@@H](O)CN12` (stereo partly drawn) [Compound 23] is more than 10 µM; for `C[C@H](c1ccc(F)cc1)n1cncc1CN1CCN(S(=O)(=O)c2cnc(N3CCN4C[C@H](O)CC4(C)C3)s2)CC1` (stereo partly drawn) [Compound 24] it is more than 10 µM.

The compound `C[C@H](c1ccc(F)cc1)n1cncc1CN1CCN(S(=O)(=O)c2cnc(N3CCC(N)(CO)CC3)s2)CC1` [Compound 25] registered a half-maximal inhibitory concentration (IC50) of more than 10 µM. As for `C[C@H](c1ccc(F)cc1)n1cncc1CN1CCN(S(=O)(=O)c2cnc(N3CCN4C(=O)OC[C@H]4C3)s2)CC1` [Compound 26], the figure is more than 10 µM; as for `C[C@H](c1ccc(F)cc1)n1cncc1CN1CCN(S(=O)(=O)c2cnc(N3CCN4CCC(O)[C@H]4C3)s2)CC1` (stereo partly drawn) [Compound 27], more than 10 µM; as for `C[C@H](c1ccc(F)cc1)n1cncc1CN1CCN(S(=O)(=O)c2ccc(N3CCNCC3)cn2)CC1` [Compound 28], more than 10 µM. As for `C[C@H](c1ccc(F)cc1)n1cncc1CN1CCN(S(=O)(=O)c2cncc(N3CCNCC3)c2)CC1` [Compound 29], the figure is more than 10 µM.

Compound `C[C@H](c1ccc(F)cc1)n1cncc1CN1CCN(S(=O)(=O)c2cnc(N3CCNCC3)cn2)CC1` [Compound 30] had an IC50 of more than 10 µM.

`Cc1ccc(C2(n3cncc3CN3CCN(S(=O)(=O)c4cnc(N5CCN(C)CC5)s4)CC3)CC2)nc1` [Compound 31]: the IC50 was more than 10 µM. `CN1CCN(c2ncc(S(=O)(=O)N3CCN(Cc4cncn4CCOc4ccc(Cl)cc4)CC3)s2)CC1` [Compound 32] yielded an IC50 of more than 10 µM. In the case of `CN1CCN(c2ncc(S(=O)(=O)N3CCN(Cc4cncn4CCOc4ccc(F)cn4)CC3)s2)CC1` [Compound 33], the half-inhibitory concentration (IC50) was more than 10 µM.

`CC(c1cncn1[C@H](C)c1ccc(F)cc1)N1CCN(S(=O)(=O)c2cnc(N3CCN4C[C@H](O)C[C@H]4C3)s2)CC1` (stereo partly drawn) [Compound 37] displayed an IC50 of 5.81 µM. This lies in the single-digit micromolar range. The figure for `C[C@H](c1ccc(F)cc1)n1cncc1C1C(=O)OCC2CN(S(=O)(=O)c3cnc(Nc4ccc(C(F)(F)F)cn4)s3)CCN21` (stereo partly drawn) [Compound 39] is 3.73 µM; for `C[C@H](c1ccc(F)cc1)n1cncc1C1COCC2CN(S(=O)(=O)c3cnc(Nc4ccccn4)s3)CCN21` (stereo partly drawn) [Compound 40] it is more than 10 µM; for `C[C@H](c1ccc(F)cc1)n1cnnc1CN1CCN(S(=O)(=O)c2cnc(N3CCN4C[C@H](O)C[C@H]4C3)s2)CC1` [Compound 42] it is more than 10 µM.
